The numbers were not newly measured in patent US7547545B2, “Directed in vitro differentiation of marrow stromal cells into neural cell progenitors” (priority 2001, dated 2009), which cites them from elsewhere.

Molecules are shown by their SMILES.

The subject of one data set is C6 glioma cells. The following applies: Sharma et al. 1987 and Ghosh et al. 1997.
Data set [1] deals with medulloblastoma cell line, MCD-1. The following applies: MCD-1 cells, Moore et al. 1996.
The next data set concerns prostate tumor cells. As to conditions: Cox et al. 1999.

Turning to `CCCC(=O)Nc1ncnc2c1ncn2[C@@H]1O[C@@H]2COP(=O)(O)O[C@H]2[C@H]1OC(=O)CCC` [dbcAMP, dibutyryl cyclic AMP], the neural differentiation result in the data set with C6 glioma cells is recorded as “induced neural differentiation”. Further, in data set [1], the extension of processes result was “greatly increase the extension of processes”. Besides, in the data set on prostate tumor cells, the neuroendocrine characteristics result is “induce prostate tumor cells to assume many of the characteristics of neuroendocrine cells”.

For `CNC[C@H](O)c1ccc(O)c(O)c1` [epinephrine], in the data set on prostate tumor cells, the neuroendocrine characteristics entry is “induce prostate tumor cells to assume many of the characteristics of neuroendocrine cells”. Regarding `CC(C)NCC(O)c1ccc(O)c(O)c1` (centres unmarked) [isoproterenol], in the data set on prostate tumor cells, the neuroendocrine characteristics entry is recorded as “induce prostate tumor cells to assume many of the characteristics of neuroendocrine cells”.
